Data set [1] relates to Bacteroides sp. The data set can be described thus: Effect on the intestinal bacterial colonies: Bacteroides sp. in feces. Particulars: after administration; 100 mg/kg orally once a day, 2 days; before administration 8.3. In kind it is in vivo, Bacteroides sp. (feces of female ICR-JCL mice). On the procedure:
(§1) Effect of the present compound on the intestinal bacterial colonies was examined as follows.
(§2) The present compound prepared in Example 2 was orally administered to each of 5 animals of a group of female ICR-JCL mice of 6-weeks-old at a daily dosage of 100 mg/kg once a day for continuous 2 days. Feces of each of the mice were collected before and after one day of the administration, and after diluting thereof with 100 times by weight of an anaerobic diluent (an aqueous phosphoric acid buffer) the thus diluted feces were ground, and 0.1 ml of the thus ground and diluted feces was smeared on each culture medium for each bacterial species (shown in Table 1).
(§3) After incubating the thus prepared culture media at 25° C. for one to five days aerobically in the cases of Escherichia coli, Pseudomonas aeruginosa and the Streptococcus species or anaerobically in the cases of the Lactobacillus acidophilus, Lactobacillus bifidus and the Bacterioides species, the number of each bacteria proliferating on the culture medium was counted.

The subject of data set [2] is Lactobacillus acidophilus. The data set can be described thus: Effect on the intestinal bacterial colonies: L. acidophilus in feces. In kind it is in vivo, Lactobacillus acidophilus (feces of female ICR-JCL mice). As to conditions: after administration; 100 mg/kg orally once a day, 2 days; before administration 9.0. On the procedure:
as §1, §2, §3
(4) Lactobacillus acidophilus
LBS anaerobic, 37° C., 5 days

For data set [3], the system named is Streptococcus sp. Kind of data set: Effect on the intestinal bacterial colonies: Streptococcus sp. in feces. In kind it is in vivo, Streptococcus sp. (feces of female ICR-JCL mice). As to conditions: after administration; 100 mg/kg orally once a day, 2 days; before administration 6.8. On the procedure: as §1, §2, §3
TATAC the same as above

A short description of data set [4]: in vitro. In kind it is in vitro ADME, Staphylococcus aureus. As to conditions: rat, s9. Here is the method: As a model experiment for verifying the stability of the present compound in Example 1 in the living body, the following procedures were adopted. The same test solution of the present compound as in Example 6 was prepared by mixing 0.1 ml of the dispersion of the present compound and 0.9 ml of S-9 mix, and shaking the mixture for 20 min at 37° C. As a control, a mixture of 0.1 ml of the dispersion of the present compound and 0.9 ml of the 0.2M phosphoric acid buffer was shaken for 20 min at 37° C. As the test bacteria, Staphylococcus aureus IAM 1011 was inoculated in Mueller-Hinton culture medium, and after incubating the inoculum for 18 hours at 37° C., the number of bacteria in the medium was adjusted to 10^8 /ml and the thus adjusted, cultured medium was mixed with 50 times by volume of Mueller-Hinton culture medium. After preparing an agar plate from the mixture, a penicillin cup of 8 mm in diameter was placed on the agar plate, and 0.1 ml of the test solution prepared above was put into the cup. After leaving the thus prepared agar plate for 2 hours at 4° C., the agar plate was subjected to culture for 18 hours at 37° C. to measure the diameter of a proliferation-inhibiting circle appearing on the agar plate. From a calibration curve preliminarily prepared between the concentration of the present compound and the diameter of the proliferation-inhibiting circle, the concentration of the present compound in the test solution and the control was obtained. By using the thus obtained concentration, the rate of retaining the antibacterial activity (Rate (%)) was calculated from the following formula and is shown in Table 5. [formula] As a comparative experiment, the same precedures were carried out except for using Cefotax (a commercialized cephalosporin derivative sold by CHUGAI Pharmaceuticla Co., Ltd., which is represented by the following formula), [drawing 21] instead of the present compound produced in Example 1.

Consider `CO/N=C(\C(=O)N[C@@H]1C(=O)N2C(C(=O)OCOC(=O)C(C)(C)C)=C(CSc3nnc(C)s3)CS[C@H]12)c1csc(NC(=O)C(Cl)Cl)n1` [Example 2], for which the “Logarithmic value of the number of bacterial cells per one gram of feces, (6) Bacteroides sp.” value in data set [1] is on record as 8.2 Logarithmic value of the number of bacterial cells per one gram of feces. Also, in data set [2], the “Logarithmic value of the number of bacterial cells per one gram of feces, (4) L. acidophilus” value is reported as 8.9 Logarithmic value of the number of bacterial cells per one gram of feces. In addition, in data set [3], the “Logarithmic value of the number of bacterial cells per one gram of feces, (3) Streptococcus sp.” value was 7.0 Logarithmic value of the number of bacterial cells per one gram of feces.
Broadly, the share remaining is the share of the starting amount still present when the sample was taken. Low values mean a greater loss, high ones greater stability. `CO/N=C(\C(=O)N[C@@H]1C(=O)N2C(C(=O)O)=C(CSc3nnc(C)s3)CS[C@H]12)c1csc(NC(=O)C(Cl)Cl)n1` [Example 1, 7β-[2-(2-dichloroacetamido-4-thiazolyl)-(Z)-2-methoxyiminoacetamido]-3-[(2-methyl-1,3,4-thiadiazol-5-yl)thiomethyl]-3-cephem-4-carboxylic acid] returned a share remaining at 20 min in data set [4] of 90%.

The values above are taken from patent US4734409A, “Cephalosporin derivative, process for producing the same and pharmaceutical composition containing the same” (Kureha Kagaku Kogyo Kabushiki Kaisha, priority 1984, dated 1988).
